Data from article doi:10.1101/2025.11.02.686125v3 (bioRxiv, 2025).
Values after ≈ are worked out from the molar mass of the structure shown. Like-named read-outs stand apart in the source and are kept apart here. Where a SMILES comes first, the peptide text is derived from it. Bridges are numbered along the chain shown (N, C = ends). [ ]: non-standard residue; d: D form. The star is where a group is joined. NMeT = CN[C@H](C(=O)O)[C@@H](C)O; dNMeL = CN[C@H](CC(C)C)C(=O)O; NMeV = CN[C@H](C(=O)O)C(C)C; X1 = COC(=O)[C@H](N)CS*; X2 = N[C@H](CS*)C(=O)O

Columns and labels:
Mav strain MAH11 = conditions: 40 h

| Structure (SMILES) | Luminescence after benzyl alcohol pretreatment (Msm (luc) cells) | Luminescence after spermidine pretreatment (Msm (luc) cells) | MIC Mtb (Mtb strain mc^26206; strain mc^26206, 40 h) [µM] | MIC Mav (Mav strain MAH11) [µM] | MIC Mtb (Mtb strain mc^26206) [µM] |
| --- | --- | --- | --- | --- | --- |
| O=C(O)[C@H]1CSC(c2nc3ccc(O)cc3s2)=N1 [D-luciferin] | modestly reduced the accumulation | significant loss of signal | – | – | – |
| CC(=O)N[C@@H](CSSC[C@@H](N)C(=O)O)C(=O)N(C)[C@H](C(=O)N1CCC[C@H]1C(=O)N(C)[C@@H]1C(=O)N[C@@H](CC(C)C)C(=O)N2CCC[C@H]2C(=O)N[C@@H](CC(C)C)C(=O)N(C)[C@@H](C(C)C)C(=O)N2CCC[C@H]2C(=O)N(C)[C@H](CC(C)C)C(=O)NCC(=O)O[C@@H]1C)C(C)C [cys-GM] (Ac-C(X2)[NMeV]P[NMeT]LPL[NMeV]P[dNMeL]G; ester 4-C) | – | – | > 32 | > 32 | – |
| COC(=O)[C@H](N)CSSC[C@H](NC(C)=O)C(=O)N(C)[C@H](C(=O)N1CCC[C@H]1C(=O)N(C)[C@@H]1C(=O)N[C@@H](CC(C)C)C(=O)N2CCC[C@H]2C(=O)N[C@@H](CC(C)C)C(=O)N(C)[C@@H](C(C)C)C(=O)N2CCC[C@H]2C(=O)N(C)[C@H](CC(C)C)C(=O)NCC(=O)O[C@@H]1C)C(C)C [cys-ME-GM] (Ac-C(X1)[NMeV]P[NMeT]LPL[NMeV]P[dNMeL]G; ester 4-C) | – | – | – | 4 (≈ 5.29 µg/mL) | 2 (≈ 2.64 µg/mL) |
